Data reported in US20250228833A1, “METHODS AND COMPOSITIONS FOR TREATING AGITATION” (BioXcel Therapeutics, Inc., priority 2021, published 2025).
Where a name gives a salt, the structure may show the parent alone.

Assays:
depressive-like behavior = assay: Forced swim test in dark phase (Example 4)
Method: • Species: Rattus norvegicus • Strain: Sprague Dawley (SD) • Sex and Age: Male, 8-10 weeks old • Source: Hylasco Biotechnology Pvt.
Study was carried out as a staggered treatment, each treatment group divided as cohort 1, cohort 2 and cohort 3.
Swim 2 was carried out between 19:30 to 21:30. Animals were administered test compounds from 18:30 onwards in staggered manner 60 minutes before FST 2.
Forced Swim Test was carried out in Dark Phase
On Day 1, animals were subjected to forced swim test training for 15 minutes (Swim 1) and on Day 2, Swim 2 was carried out post treatment.
On day 2 animals were dosed with respective treatment 60 min prior to performing FST.
Forced swim test (Swim 2) was scored manually with no video recording
Forced swim test (FST), was used to study the depressive-like behavior in rodents. The test was carried out in transparent cylindrical glass containers measuring 46 cm in height and 20 cm in diameter.
The containers were filled with water (23-25° C.) to a depth of 30 cm.
There were 2 swim sessions, 24 h apart. The first session, Swim 1 was the pretest/training stage (15 min) and the second session, Swim 2, was the test stage (8 min).
In swim 2, first 1-minute data was excluded from analysis and rest 7 minutes data was considered. In 7 minutes, data, it was divided 5 minutes and 2 minute.
Rat was placed in the water-filled cylinder for 15 min (Swim 1). […]

[1] = tested on: spontaneous locomotor activity; assay: Open field test (Example 7); settings: 60 min post dose, 30 minutes tracking, vs vehicle
Method: Test system: Mice Strain/Gender: Swiss albino/Male Study: Open field test
Open field test: The spontaneous locomotor activity in terms of total distance traveled is measured in open field test. Comparatively lower distance traveled would indicate either less motor activity or sedation.
Mice were brought to the laboratory and allowed to acclimatize to the environment for at least 7 days. The open field test was done in lighting conditions of 40 lux light. The mice were dosed as per the allocation. After a post dose interval of 60 minutes, 4 mice from a group were placed in the open field and the movement was tracked for a period of 30 minutes. Once the trial was over the mice were removed from the open field and the arena was cleaned. Following this, next set of 4 mice were placed in the arena and tracked.
The distance travelled for a period of 30 minutes was analyzed in bins of 5 minutes and was compared with that of the vehicle group using one-way ANOVA followed by Dunnett's test. All statistical analysis were performed using Graph pad prism software package (Version 7 or Higher) and p value below 0.05 was considered as significant.

[2] = tested on: yohimbine-induced noradrenergic hyperarousal; assay: Elevated plus maze, latrepirdine at different doses in yohimbine-induced hyperarousal (Example 3); type: in vivo, Wistar rats; settings: for Percent increase as referred to the Vehicle level, Entries / Percent increase as referred to the Vehicle level, Time: yohimbine 2.5 mg/kg i.p. 30 min, 60 min
Method: Drug preparation: All compounds/drugs were prepared in normal saline (0.9% NaCl).
Yohimbine was prepared at a solution of 2.5 mg/mL which when injected i.p. at a dosage volume of 1 mL/kg results in a dose of 2.5 mg/kg. Diazepam was prepared at a solution of 1 mg/mL which when injected i.p. at a dosage volume of 1 mL/kg results in a dose of 1 mg/kg. Latrepirdine dihydrochloride hydrate was prepared at a solution of 7.5, 2.5, 0.75 and 0.25 mg/mL which when injected i.m. at a volume of 100 μL for a rat of 250 g results in doses of 3; 1; 0.3 and 0.1 mg/kg; respectively. Latrepirdine dihydrochloride hydrate was also prepared at […] which when administrated i.p. at a dosage volume of 1 mL/kg results in a dose of 3 mg/kg.
Male Wistar rats (Janvier; Le Genest St Isle-France) were used for the study. They were purchased at a body weight of 150 g and reached a body weight of about 220 g at the time of use. They were group-housed (3-4 rats per cage) and maintained in a room with controlled temperature (21-22° C.) and a reversed light-dark cycle (12 h/12 h; lights on: 17:30-05:30; lights off: 05:30-17:30) with food and water available ad libitum.
Rats were distributed in 9 different experimental groups with 12 rats per group as illustrated in Table 6. Each experimental group was also coded so that the experimenter became unaware of the true experimental group at the time EPM trial.
The rats were randomly assigned to one of the different experimental groups. Each animal was identified by its group name, cage number, series (day) of experiment, and a number (from 1 to 9) written with permanent ink on its tail. They were handled by an experimenter for about 3 min each day during 1 week prior to the day of EPM trial. The apparatus was a PVC maze covered with Plexiglas and subdivided into four equal exploratory arms (40×10 cm), which were all interconnected by a small platform (10×10 cm). The apparatus was placed 65 cm above the floor. Two arms were opened, and two others were closed with wall (high: 10 cm). After compound administration, rat was placed on the platform opposite a closed arm. The number of entries and the time spent in each arm were recorded during a 5 min period. The animal was considered as entered in an arm when it placed its four paws in the arm. The apparatus was cleaned between each animal using alcohol (70%). Urine and feces were removed from the maze. During the trials, animal handling and the visibility of the operator were minimized as much as possible.
Analysis of variance (ANOVA) was performed on the result data. Fisher's PLSD was used for pairwise comparisons and p value≤0.05 were considered significant. For the sake of comparison, the change in the EPM performance of Yohimbine rats was expressed as a percentage of increase/decrease as referred to the level recorded in the vehicle (set as 0% change). Therefore, for each of the EPM parameter, the following formula was used: [performance of a given group-performance of vehicle group]/[performance of vehicle group]×100

[3] = tested on: yohimbine-induced noradrenergic mediated hyperarousal; assay: Elevated plus maze, yohimbine-induced hyperarousal (Example 2); type: in vivo, Wistar rats; settings: for exploration time (time spent in the open arms) / number of open arm entries: 60 min prior to EPM, yohimbine 2.5 mg/kg i.p. 30 min prior, 5 min period; for reduction of noradrenergic mediated hyperarousal: 10 mg/kg i.m. pretreatment, yohimbine 2.5 mg/kg i.p.
From the text: Background: Yohimbine is an alpha 2-adrenergic receptor antagonist reported to trigger panic attacks in healthy volunteers and to exacerbate symptoms in patients with panic disorder (Charney et al., 1992 Acta Psychiatr Scand., Vol. 86 (4): 273-282). Peripheral administration of Yohimbine causes noradrenergic mediated hyperarousal in rats as assessed by the EPM paradigm.
Rationale: The drug yohimbine is a natural product used to test a specific pathway, noradrenergic-mediated hyper-arousal. It is well established that yohimbine is an alpha2-adrenergic receptor antagonist and activates the locus coeruleus (LC) and increases noradrenergic signaling (the opposite of alpha2-adrenergic agonists like dexmedetomidine and clonidine). Increased LC activity and noradrenergic signaling makes animals anxious and agitated which can be measured by using the elevated plus maze. In the elevated plus maze, rodents were in the closed arms and explored the open arms depending on their anxiety and agitation (rats and mice normally explore their environments extensively when calm).
Animal groups: Male: Wistar rats were used in this study and were randomly divided to different experimental groups (12 animals per group).
The test drugs were procured from Sigma or Tocris. dextromethorphan from Sigma Aldrich, Cat No. D9684; latrepirdine from Sigma Aldrich, Cat No. D6196 or Tocris Cat No. 3201 diazepam and fluvoxamine Sigma Aldrich, Cat No. F2802 or Tocris, Cat No. 1033. All these test drugs were formulated in sufficient quantity in 0.9% saline except for Fluvoxamine, which was formulated in 30% ethanol in 0.9% saline.
Apparatus: Elevated Plus Maze (EPM) was used (FIG. 1). The maze consisted of two closed arms and two open arms forming a cross, with a square center platform. All visible surfaces were made of black acrylic. Each arm of the maze was placed on a support column above the floor. Antistatic black vinyl curtains used for surrounding the EPM to make an enclosure.
Study Design and Dosing: Yohimbine was administered by intraperitoneal injection (i.p.) at a dose of 2.5 mg/kg (30 minutes prior to study) to induce agitation and the effects were assessed 30 minutes after yohimbine injection by measuring the number of open arm entries and exploration time in the EPM. The test drugs fluvoxamine, dextromethorphan and latrepirdine dihydrochloride hydrate were administered through intramuscular route and, diazepam through intraperitoneal route into the hindleg thigh muscle of rats (60 minutes prior to study; 30 minutes prior to yohimbine administration). Diazepam was injected 30 minutes intraperitonially prior to the assay i.e. along with yohimbine administration. The study design is illustrated in FIG. 2 and table 5.
After the test drug administration, the rat was placed on the platform opposite a closed arm. The number of entries and the time spent in each arm were recorded during a 5 min period. The animal was considered as entered in arm when it placed its four paws into the arm.
Statistical Analysis: Analysis of variance (ANOVA) was performed on the result data. Fisher's PLSD was used for pairwise comparisons and p value≤0.05 was considered significant.

aggressive behavior = assay: Resident intruder task (Example 5); type: in vivo, Swiss albino mice; settings: 10 mg/kg i.p., 60 min prior to trial; mean value
Method: Strain/Gender: Swiss albino/Male
Bilateral ovariectomy surgery was carried out in 3-4 weeks old female Swiss albino mice as per the standard methods (Alagwu and Nneli, 2005). Animals were anesthetized using Avertin (2,2,2-Tribromoethanol) at 250 mg/kg, i.p. and were laid down on the surgery table and fixed with adhesive plaster. A midline incision was made on the dorsal region below the rib and 1 cm lateral to the either side of midline, a small incision was made on fascia to isolate the adipose fat supporting the ovaries. By slowly pulling out the fat tissue, the ovary was identified and excised the following uterine horn ligation with silk sutures. Fascia was covered with sutures and similar procedure was repeated on the other side as well. Superficial skin layers were sutured and gentamicin (80 mg/kg, s.c.) was given as antibiotic and meloxicam (4 mg/kg, s.c.) as analgesic, then povidone iodine was applied on superficial skin layers. Polyethylene glycol (PEG) was applied to prevent drying of eye balls and kept for recovery period of 3 weeks (surgery was carried by a single experimenter). […]
Data obtained was compared with basal scoring by using Student's paired two tailed t-test. Duration of attack, and latency of attack between the groups was analyzed using One-Way ANOVA followed by Bonferroni's posthoc test. […]

**Q.** `Cc1cccc([C@H](C)c2cnc[nH]2)c1C` [Dexmedetomidine hydrochloride, (+) 4-(S)-[1-(2,3-dimethylphenyl)ethyl]-1H-imidazole] was tested. Which “increase in swimming time as compared to vehicle saline” value (depressive-like behavior; 1 μg/kg i.m.) did it give?
**A.** ~1.6%

**Q.** And the distance traveled ([1]; 4 μg/kg i.p.)?
**A.** did not show any significant reduction

**Q.** And the distance traveled ([1]; 10 μg/kg i.p.)?
**A.** did not show any significant reduction

**Q.** And the distance traveled ([1]; 20 μg/kg i.p.)?
**A.** did not show any significant reduction

**Q.** What about the distance traveled ([1]; 30 μg/kg i.p.) of the same molecule?
**A.** significant reduction

**Q.** Which results are given for `Cc1ccc2c(c1)c1c(n2CCc2ccc(C)nc2)CCN(C)C1` [Latrepirdine dihydrochloride hydrate, 2,8-dimethyl-5-[2-(6-methylpyridin-3-yl)ethyl]-3,4-dihydro-1H-pyrido[4,3-b]indole]?
**A.** increase in swimming time as compared to vehicle saline (depressive-like behavior; 1 mg/kg i.m.): 9.8%; Percent increase as referred to the Vehicle level, Entries ([2]; 1 mg/kg i.m.): significant; Percent increase as referred to the Vehicle level, Time ([2]; 1 mg/kg i.m.): significant; Percent increase as referred to the Vehicle level, Entries ([2]; 3 mg/kg i.m.): significant; Percent increase as referred to the Vehicle level, Time ([2]; 3 mg/kg i.m.): significant; number of visits to and time spent into the open arms, dose dependence ([2]; yohimbine administered rats, 0.1, 0.3, 1 and 3 mg/kg i.m.): dose-dependent increase; EPM performance, i.m. compared with i.p. route ([2]; yohimbine rats, 3 mg/kg i.m. vs 3 mg/kg i.p.): comparable; EPM performance of saline-treated rats ([2]; yohimbine-free rats, 3 mg/kg i.m.): did not significantly modify; distance traveled ([1]; 1 mg/kg i.p.): did not show any significant reduction; distance traveled ([1]; 3 mg/kg i.p.): did not show any significant reduction; distance traveled ([1]; 10 mg/kg i.p.): did not show any significant reduction; exploration time (time spent in the open arms) ([3]; 3 mg/kg i.m.): increased; number of open arm entries ([3]; 3 mg/kg i.m.): significantly increased; exploration time (time spent in the open arms) ([3]; 10 mg/kg i.m.): increased; number of open arm entries ([3]; 10 mg/kg i.m.): significantly increased; duration of attack (aggressive behavior): 36.87 s

**Q.** How did the “reduction of noradrenergic mediated hyperarousal” value [3] turn out when `COc1ccc2c(c1)[C@]13CCCC[C@@H]1[C@H](C2)N(C)CC3` [dextromethorphan, Dextromethorphan] was run?
**A.** ineffective

**Q.** And the “exploration time (time spent in the open arms)” value ([3]; 10 mg/kg i.m.)?
**A.** no effect

**Q.** What about the “number of open arm entries” value ([3]; 10 mg/kg i.m.) of the same molecule?
**A.** no effect

**Q.** What does the source list for `COCCCC/C(=N\OCCN)c1ccc(C(F)(F)F)cc1` [fluvoxamine, Fluvoxamine]?
**A.** reduction of noradrenergic mediated hyperarousal [3]: ineffective; exploration time (time spent in the open arms) ([3]; 10 mg/kg i.m.): no effect; number of open arm entries ([3]; 10 mg/kg i.m.): no effect

**Q.** How did the “number of visits to and time spent into the open arms” value ([2]; 2.5 mg/kg i.p., vehicle-treated, compared to vehicle-treated saline rats) turn out when `COC(=O)[C@@H]1[C@H]2C[C@H]3c4[nH]c5ccccc5c4CCN3C[C@@H]2CC[C@@H]1O` [yohimbine, Yohimbine] was run?
**A.** marked significant decrease
